# According to patent publication US20050004126A1 (priority 2001, published 2005):
# “And” between values parts separate entries of the source, which are not always exact repeats. Equal entries are not always repeated. Structures can show the parent of a compound that is named as a salt. Where two headings read alike, the source gives them in different places.
# Legend:
# [1] = target: MMP-13CD (catalytic domain of collagenase 3) (Homo sapiens, UniProt P45452); assay: Thiopeptolide hydrolysis assay, MMP-13;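 also: inhibition of enzymatic thiopeptolide substrate cleavage (100 µM) in pH 6.0 MES buffer with CaCl2 and DTNB, comparing hydrolysis with versus without inhibitor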
# Procedure: They measure the amount by which a test compound reduces the hydrolysis of a thiopeptolide substrate caused by a matrix metalloproteinase enzyme.
# Thiopeptolide substrates show virtually no decomposition or hydrolysis in the absence of a matrix metalloproteinase enzyme. A typical thiopeptolide substrate commonly utilized for assays is Ac-Pro-Leu-Gly-thioester-Leu-Leu-Gly-OEt. A 100 μL assay mixture will contain 50 mM of 2-morpholinoethane sulfonic acid monohydrate (MES, pH 6.0) 10 mM CaCl2, 100 μM thiopeptolide substrate, and 1 mM 5,5′-dithio-bis-(2-nitro-benzoic acid) (DTNB). […] Assays are carried out with and without matrix metalloproteinase inhibitor compounds, and the amount of hydrolysis is compared for a determination of inhibitory activity of the test compounds.
# [2] = target: MMP-3CD (catalytic domain of stromelysin) (Homo sapiens, UniProt P08254); assay: Thiopeptolide hydrolysis assay, MMP-3; type: biochemical; settings: read-out: MMP03 IC50;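 also: inhibition of thiopeptolide substrate (100 µM) cleavage by the MMP-3 catalytic domain, detected with DTNB at pH 6.0 with CaCl2, hydrolysis compared against runs lacking inhibitor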
# Chain of MMP-3CD (catalytic domain of stromelysin) (P08254 100-272 limits assumed): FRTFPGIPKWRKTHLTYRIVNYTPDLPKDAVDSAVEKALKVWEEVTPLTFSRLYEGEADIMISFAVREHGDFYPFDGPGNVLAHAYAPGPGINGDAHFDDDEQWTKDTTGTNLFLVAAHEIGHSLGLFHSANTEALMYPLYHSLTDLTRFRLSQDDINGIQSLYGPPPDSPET
# [3] = target: T1, MMP-1FL (full-length interstitial collagenase) (Homo sapiens, UniProt P03956); assay: Thiopeptolide hydrolysis assay, MMP-1; type: biochemical; settings: read-out: MMP01 IC50
# T1 sequence (P03956 100-469): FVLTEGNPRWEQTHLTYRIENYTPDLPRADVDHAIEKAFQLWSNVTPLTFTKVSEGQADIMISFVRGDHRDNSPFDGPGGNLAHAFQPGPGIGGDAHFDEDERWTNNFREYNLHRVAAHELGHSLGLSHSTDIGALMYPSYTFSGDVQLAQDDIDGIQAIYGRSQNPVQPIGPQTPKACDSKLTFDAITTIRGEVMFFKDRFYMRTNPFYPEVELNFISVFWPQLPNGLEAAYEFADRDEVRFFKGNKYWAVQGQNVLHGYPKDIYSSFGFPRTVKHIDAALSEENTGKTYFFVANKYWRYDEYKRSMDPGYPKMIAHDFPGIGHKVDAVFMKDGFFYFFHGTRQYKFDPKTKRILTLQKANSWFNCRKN
Structure (SMILES),"IC50 ([1]; MMP13 IC50 (μM), Table 1b) [µM]","IC50 ([1]; MMP13 IC50 (nM), Table II)",IC50 ([3]; Table II) [µM],other results
Cc1c(=O)n(Cc2ccc(-c3nn[nH]n3)cc2)c(=O)n2cc(C(=O)NCc3ccc(F)cc3)sc12,0.0009,–,–,IC50 ([2]; Table 1b): 16 µM; IC50 ([3]; Table 1b): > 100 µM
COC(=O)c1ccc(Cn2c(=O)c(C)c3sc(C(=O)NCc4ccc(OC)cc4)cn3c2=O)cc1,0.0106,–,–,IC50 ([2]; Table 1b): 65 µM; IC50 ([3]; Table 1b): > 100 µM
"COc1ccc(C(=O)NCc2ccccc2)cc1C(=O)NCc1ccccc1 [N,N′-Dibenzyl-4-methoxy-isophthalamide]",–,1.8 µM and 1.1 µM,> 100,IC50 ([2]; Table II): > 100 µM
O=C(NCc1ccccc1)c1cn2c(=O)n(Cc3ccc(Cl)cc3)c(=O)cc2s1,0.415,–,–,IC50 ([2]; Table 1b): 43 µM; IC50 ([3]; Table 1b): > 30 µM
COC(=O)c1ccc(Cn2c(=O)c(C)c3sc(C(=O)NCc4ccc(F)cc4)cn3c2=O)cc1Cl,0.24,–,–,IC50 ([2]; Table 1b): > 30 µM; IC50 ([3]; Table 1b): > 30 µM
O=C(OCc1ccc2nsnc2c1)c1cccc(C(=O)OCc2ccc3nsnc3c2)c1,–,–,> 100,IC50 ([2]; Table II): > 30 µM
O=C(OCc1ccccc1)C1C[S+]([O-])c2cc(=O)n(Cc3ccccc3)c(=O)n21 (stereo not drawn),0.072,–,–,IC50 ([2]; Table 1b): 23 µM; IC50 ([3]; Table 1b): > 100 µM
"O=C(Nc1cccc(CO)c1)c1cccc(C(=O)Nc2cccc(CO)c2)c1 [N,N′-Bis-(3-hydroxymethyl-phenyl)-isophthalamide]",–,7.8 µM,> 100,–
O=C(OCc1ccc(F)cc1)c1cccc(C(=O)OCc2ccc(F)cc2)c1 [Isophthalic acid bis-(4-fluoro-benzyl) ester],–,2.33 µM,> 100,IC50 ([2]; Table II): > 100 µM
O=C(NCc1ccccc1)c1cccc(C(=O)NCc2ccc3c(c2)OCO3)c1,–,1.9 µM,> 100,IC50 ([2]; Table II): > 100 µM
CC(=O)c1ccc(C(=O)OCc2ccccc2)cc1C(=O)OCc1ccccc1 [4-Acetyl-isophthalic acid dibenzyl ester],–,8.2 µM,> 100,IC50 ([2]; Table II): > 100 µM
O=C(NCc1ccccc1)c1cn2c(=O)n(Cc3ccncc3)c(=O)cc2s1 [hydrochloride],1.8,–,–,IC50 ([2]; Table 1b): > 100 µM; IC50 ([3]; Table 1b): > 100 µM
COc1cccc(CNC(=O)c2cccc(C(=O)NCc3ccc(Cl)c(Cl)c3)c2)c1,–,0.555 µM,> 100,IC50 ([2]; Table II): 68 µM
O=C(O)c1ccc(COC(=O)c2cccc(C(=O)NCc3ccc4c(c3)OCO4)c2)cc1,–,0.033 µM,> 100,–
"COc1ccc(CNC(=O)c2ccc(OC)c(C(=O)NCc3ccc(OC)cc3)c2)cc1 [4-Methoxy-N,N′-bis-(4-methoxybenzyl)-isophthalamide] [listing 1 of 2 here]",–,–,> 100,–
Cc1c(=O)n(Cc2ccccc2)c(=O)n2cc(C(=O)NCc3cccnc3)sc12 [hydrochloride],0.26,–,–,IC50 ([3]; Table 1b): > 30 µM
"O=C(NCc1ccc2c(c1)OCO2)c1cccc(C(=O)NCc2ccc3c(c2)OCO3)c1 [Synthesis Example 11, N,N-Bis-1,3-benzodioxol-5-ylmethyl-isophthalamide]",–,0.33 µM and 0.683 µM,–,IC50 ([2]; Table II): 69 µM and 81 µM
Cc1c(=O)n(Cc2ccc(C(=O)O)cc2)c(=O)n2cc(C(=O)NCc3ccc(F)cc3)sc12 [Sodium Salt],0.002,–,–,IC50 ([2]; Table 1b): 55.5 µM
CC(C)Oc1ccc(C(=O)NCc2ccc3c(c2)OCO3)cc1C(=O)NCc1ccc2c(c1)OCO2,–,3.75 µM,71,–
COc1ccc(CNC(=O)c2cn3c(=O)n(Cc4ccccc4)c(=O)c(C)c3s2)cn1 [hydrochloride],0.0208,–,–,IC50 ([2]; Table 1b): 20.5 µM
"COc1ccc(CNC(=O)c2ccc(OC)c(C(=O)NCc3ccc(OC)cc3)c2)cc1 [4-Methoxy-N,N′-bis-(4-methoxybenzyl)-isophthalamide] [listing 2 of 2 here]",–,0.25 µM,–,IC50 ([2]; Table II): 82 µM
Cc1c(=O)n(Cc2ccccc2)c(=O)n2cc(C(=O)NCc3ccc4nsnc4c3)sc12,0.0046,–,–,IC50 ([3]; Table 1b): > 30 µM
COc1ccc(C(=O)OCc2ccc3nsnc3c2)cc1C(=O)OCc1ccc2nsnc2c1,–,–,30,–
COc1cccc(CNC(=O)c2ccc3c(c2)c(=O)n(Cc2ccc(C(=O)O)cc2)c(=O)n3C)c1,–,–,–,"IC50 ([1]; MMP13 IC50 μM, Table IVb): 0.0009 µM"
C/C=C/Cn1c(=O)c(C)c2sc(C(=O)NCc3ccc(F)cc3)cn2c1=O,0.53,–,–,–
Cn1c(=O)n(Cc2ccc(C(=O)O)cc2)c(=O)c2cc(C(=O)NCc3ccc4nonc4c3)ccc21,–,–,–,"IC50 ([1]; MMP13 IC50 μM, Table IVb): 0.003 µM"
"Cn1c(=O)n(Cc2ccccc2)c(=O)c2cc(C(=O)NCc3ccc4c(c3)OCO4)cnc21 [3-Benzyl-1-methyl-2,4-dioxo-1,2,3,4-tetrahydro-pyrido[2,3-d] pyrimidine-6-carboxylic acid (1,3-benzodioxol-5-ylmethyl)-amide]",–,–,–,"IC50 ([1]; MMP13 IC50 μM, Table IVb): 0.007 µM"
COC(=O)Cc1ccc(Cn2c(=O)c3cc(C(=O)NCc4ccc(OC)cc4)ccc3n(C)c2=O)cc1,–,–,–,"IC50 ([1]; MMP13 IC50 μM, Table IVb): 0.0034 µM"
